The values below come from patent US20140323418A1, “SELECTIVE KINASE INHIBITORS” (PORTOLA PHARMACEUTICALS, INC., priority 2011, published 2014).

In the assay the target is T1, full length active recombinant SYK enzyme (Homo sapiens, UniProt P43405).
T1 construct: full length active recombinant SYK enzyme (Millipore, Calif.); purchased Millipore
Description: Inhibition of Syk tyrosine phosphorylation activity (LANCE TR-FRET kinase assay). The assay is classed as biochemical. To be noted: 1 nM SYK, 550 nM substrate, 100 μM ATP, 1 hour room temperature. For orientation: TR-FRET usually uses a lanthanide donor and a delayed reading to cut background.
As for `CCCc1cc2c(Nc3nc(N[C@@H]4CCCC[C@@H]4N)ncc3C(N)=O)cccc2n1C` [Example 102, 2-((1R,2S)-2-aminocyclohexylamino)-4-(1-methyl-2-propyl-1H-indol-4-ylamino)pyrimidine-5-carboxamide], the IC50 (in general, the concentration needed to halve the response being measured) is 10 to 100 nM.
In the case of `NC(=O)c1cnc(N[C@@H]2CCOC[C@@H]2N)nc1Nc1ccc2ncsc2c1` [Example 181, 2-((3R,4R)-3-aminotetrahydro-2H-pyran-4-ylamino)-4-(benzo[d]thiazol-6-ylamino)pyrimidine-5-carboxamide] it was 10 to 100 nM; in that of `NC(=O)c1cnc(N[C@@H]2CCCC[C@@H]2N)nc1Nc1cccc(-n2ncc[n+]2[O-])c1` [Example 251, 2-(3-((2-(((1R,2S)-2-aminocyclohexyl)amino)-5-carbamoylpyrimidin-4-yl)amino)phenyl)-2H-1,2,3-triazole 1-oxide], 10 to 100 nM; in that of `Cc1ccc(Nc2ncc(C(N)=O)c(N[C@H]3CC[C@H](N)CC3)n2)cc1` [Example 244, 4-(trans-4-aminocyclohexylamino)-2-(p-tolylamino)pyrimidine-5-carboxamide], 100 to 1000 nM.
Turning to `NC(=O)c1cnc(NC[C@@H](N)CC(F)F)nc1Nc1cccc2c1CCN2CC(F)(F)F` [Example 97], the IC50 was 10 to 100 nM.
With `COc1cccc(Nc2nc(N[C@@H](C(N)=O)C3CC3)ncc2C(N)=O)c1` [Example 64, (R)-2-((2-amino-1-cyclopropyl-2-oxoethyl)amino)-4-((3-methoxyphenyl)amino)pyrimidine-5-carboxamide], the IC50 lay within 100 to 1000 nM.
`NC(=O)c1cnc(N[C@@H]2CCCC[C@@H]2N)nc1Nc1ccc(Cl)c(-n2nccn2)c1` [Example 22, 2-((1R,2S)-2-aminocyclohexylamino)-4-(4-chloro-3-(2H-1,2,3-triazol-2-yl)phenylamino)pyrimidine-5-carboxamide]: the IC50 lay in the range of 1 to 10 nM.
`CCN1CC[C@@H](Nc2ncc(C(N)=O)c(Nc3cccc(-n4nccn4)c3)n2)C1` [Example 223]: the IC50 is above 1000 nM.
Take `CC[C@@H](Nc1ncc(C(N)=O)c(Nc2cnc3ccccc3c2)n1)C1(N)CC1` [Example 154, (R)-2-(1-(1-aminocyclopropyl)propylamino)-4-(quinolin-3-ylamino)pyrimidine-5-carboxamide]: the IC50 is 1 to 10 nM.
As for `NC(=O)c1cnc(N[C@@H]2CCCC[C@@H]2N)nc1Nc1cnn2ccccc12` [Example 43, 2-(((1R,2S)-2-aminocyclohexyl)amino)-4-(pyrazolo[1,5-a]pyridin-3-ylamino)pyrimidine-5-carboxamide], the IC50 is 1 to 10 nM.
Regarding `NC(=O)c1cnc(N[C@H]2[C@@H](N)CCCC2(F)F)nc1Nc1cccc(-c2ncccn2)c1` [Example 35, 2-(((1S,6S)-6-amino-2,2-difluorocyclohexyl)amino)-4-((3-(pyrimidin-2-yl)phenyl)amino)pyrimidine-5-carboxamide], the 50% inhibitory concentration (IC50) was 10 to 100 nM.
On to `CCc1c(C)c2c(Nc3nc(N[C@@H]4CCCC[C@@H]4N)ncc3C(N)=O)cccc2n1C` [Example 100, 2-((1R,2S)-2-aminocyclohexylamino)-4-(2-ethyl-1,3-dimethyl-1H-indol-4-ylamino)pyrimidine-5-carboxamide], for which the IC50 lay in the range of 100 to 1000 nM.
Regarding `CC[C@@H](Nc1ncc(C(N)=O)c(Nc2cccc(C)c2)n1)C1(N)CC1` [Example 126, (R)-2-(1-(1-aminocyclopropyl)propylamino)-4-(m-tolylamino)pyrimidine-5-carboxamide], the IC50 is below 1 nM.
With `Cc1cccc(Nc2nc(N[C@@H]3C[C@@H](C(N)=O)CC[C@@H]3N)ncc2C(N)=O)c1` (racemic) [Example 243, 2-((1R,2S,5S)-2-amino-5-carbamoylcyclohexylamino)-4-(m-tolylamino)pyrimidine-5-carboxamide], the IC50 was in the range of 100 to 1000 nM.
